Data: patent US20070128665A1, “Methods for identifying compounds interacting with small membrane-bound gtp-ases” (priority 2003, published 2007)
Like-named read-outs stand apart in the source and are kept apart here.

What was measured:
[1] = test system: membrane bound active Ras (H-Ras); experiment: RAPID assay (Ras Activity Probe for Inhibitor Detection), GFP-RBD reporter, COS-7 cells; assay type: cell-based; conditions: 50 μM ATP
Method: COS-7 cells were grown in DMEM supplemented with 10% FCS. The day before transfection cells were seeded out on 6-well tissue culture plates containing 22 mm circular glass coverslips to obtain a confluency of 50-60% prior to transfection. DNA constructs (pcDNA3.1 H-Ras, pEGFP-C3 RBD and optionally pCl-neo CAPRI) were incubated with Genejuice (Novagen) according to manufacturers instructions and added to the cell medium to transfect (lipofect) cells. 24 hours later coverslips were mounted in a heated stage (37° C.) in KH buffer [5 mM HEPES, 10 mM glucose, 25 mM NaHCO3 1.2 mM K2HPO4, 118 mM NaCl, 4.7 mM KCl, 1.2 mM MgSO4, 1.3 mM CaCl2 (pH 7.4)]. Nipkow confocal microscopy was performed using a PerkinElmer UltraView LCI system to image GFP. […] Inhibition of Ras activation, or deactivation of active Ras, was detected by dissociation of the fluorescent […] reporter from the plasma and/or Golgi membranes, into the cytosol. This was seen as a loss of fluorescent signal from the membrane/increase in fluorescent signal in the cytosol.
The inverse relative change in fluorescence intensity at a given time point is expressed as, 1−(cytosolic fluorescence intensity/maximum experimental cytosolic fluorescence intensity)
(§1) Relative Dissociation=maximal pixel intensity of cytosolic ROI (usually at time zero) divided by the cytosolic ROI at time x during the experiment.

[2] = test system: membrane bound active Ras (H-Ras); experiment: GFP-RBD dissociation in H-Ras transfected CHO.T cells; assay type: cell-based; conditions: ATP 50 μM
Text: FIG. 6. […] GFP-RBD is localised to the plasma membrane and endomembranes in non-starved, H-Ras transfected CHO.T cells.

CAPRI C2A/C2B domains = experiment: GFP-C2A/C2B localisation, live confocal microscopy, COS-7 cells; assay type: cell-based
Method: Experiments were performed to assess expression of GFP-C2A/C2B domain COS-7 cells imaged by live confocal microscopy. Cells were transfected with GFP-C2A/C2B vector by lipofection and imaged 24 hours later. […] Nuclear GFP-C2A/C2B is diffusely localised throughout the nucleoplasm before stimulation (due to size of the fusion protein). […] The stimulated association/disassociation of these structures are probably due to a specific interaction with endogenous entities near the plasma membrane and within the perinuclear region, rather than non-specific aggregation (see 20 second image).

CAPRI = experiment: GFP-CAPRI translocation assay, live confocal imaging, HeLa cells; assay type: cell-based; conditions: HeLa cells expressing GFP-C2B; carbachol stimulation
Method: The ability of the activating peptide to induce translocation of CAPRI to the plasma membrane can be monitored by applying cell-permeable peptide to live cells expressing GFP-tagged CAPRI imaged by confocal or wide-field microscopy. Experiments were performed to assess expression of GFP-C2B compared with GFP-CAPRI in HeLa cells 24 hrs after transient transfection by lipofection. Live imaging was performed by confocal microscopy. The results are shown in FIG. 3, the image for GFP-C2B is shown on the left hand side, GFP-CAPRI images at 0 s, 30 s and 60 s are shown on the right. Cells expressing GFP-CAPRI were stimulated with carbachol to mobilise intracellular Ca^2+, time=seconds after stimulation. […] CAPRI activating peptides induce the translocation of GFP-CAPRI to the plasma membrane in the absence of agonist stimulation.

[3] = test system: membrane bound active Ras (H-Ras); conditions: 100 μM histamine
Text: FIG. 9. […] Dissociation of the RBD from the plasma membrane is expressed as Relative Dissociation=maximal pixel intensity of cytosolic ROI (usually at time zero) divided by the cytosolic ROI at time x during the experiment.
as §1

Nc1ncnc2c1ncn2[C@@H]1O[C@H](COP(=O)(O)OP(=O)(O)OP(=O)(O)O)[C@@H](O)[C@H]1O [ATP]
deactivation of Ras (GFP-RBD dissociation), control cells ([1]; COS cells transfected with H-Ras and GFP-RBD only, or GAP-dead CAPRI (R47S mutant)): no detectable deactivation
dissociation of GFP-RBD from the plasma membrane (Ras deactivation) ([1]; non-starved COS-7 transfected with H-Ras, GFP-RBD and CAPRI): rapid dissociation of the GFP-RBD exclusively from the plasma membrane
deactivation of Ras at the plasma membrane (GFP-RBD dissociation) ([2]; CHO cells stably expressing CAPRI, H-Ras transfected, non-starved): rapid deactivation of Ras at the plasma membrane
GFP-RBD dissociation, parental cells ([2]; parental CHO.T cells): No such dissociation

O=C(O)CN(CCOCCOCCN(CC(=O)O)CC(=O)O)CC(=O)O [EGTA]
dissociation of GFP-C2A/C2B chimera from the membrane (CAPRI C2A/C2B domains; COS-7 cells after ionomycin, 5 μM EGTA in extracellular medium): rapid dissociation of the GFP-C2A/C2B chimera from the membrane into the cytosol and nucleoplasm

C[N+](C)(C)CCOC(N)=O [carbachol]
GFP-C2B localisation (CAPRI): No detectable effect

NCCc1c[nH]cn1 [histamine]
deactivation of Ras (GFP-RBD dissociation), control cells ([3]; HeLa cells transfected with H-Ras and GFP-RBD only, or GAP-dead CAPRI (R47S mutant)): no detectable deactivation
dissociation of GFP-RBD from the plasma membrane (Ras deactivation) ([3]; non-starved HeLa transfected with H-Ras, GFP-RBD and CAPRI): rapid dissociation of the GFP-RBD from the plasma membrane

C[C@H](CCC(=O)O)C[C@H](C)C[C@H](C)C(=O)/C=C(\O)[C@H](C)C[C@H](C)C/C=C/[C@@H](C)[C@@H](O)[C@@H](C)[C@@H](O)C[C@@H]1CC[C@@](C)([C@H]2CC[C@@](C)([C@@H](C)O)O2)O1 [ionomycin]
redistribution of GFP-C2A/C2B chimera (CAPRI C2A/C2B domains; COS-7 cells, ionomycin stimulation): forms punctate vesicular structures under the plasma membrane
